Read-outs that look alike come from different tables or passages of the source. Marks after values point to notes of the source that are not given here.

By IC50 is commonly meant the concentration that inhibits the measured activity by half. Broadly, the pKa is the negative logarithm of the acid dissociation constant.

The nature of data set [1]: Cytotoxicity, resazurin assay. The settings on record: human, max tested 200 μM. The data set is classed as cell-based, human. The procedure:
(§1) As the anticancer potential of microbial rhamnolipids has previously been reported,[16] we next sought to evaluate the in vitro cytotoxicity of our synthetic and natural glycolipids 1–6 against cancerous cell lines, i.e., human lung carcinoma (A549) and colorectal adenocarcinoma (DLD-1). The compounds were also tested against human normal skin fibroblasts (WS1) to estimate their selectivity towards cancer cells.
(§2) 4. Experimental Procedures for Biological Evaluation and Surfactant Properties. […]
(§3) Cell Culture. Human lung carcinoma (A549), human colorectal adenocarcinoma (DLD-1), and human normal skin fibroblasts (WS1) cell lines were obtained from the American Type Culture Collection (ATCC). All cell lines were cultured in minimum essential medium containing Earle’s […]
(§4) salts and L-glutamine (Mediatech Cellgro, VA), to which were added 10% foetal bovine serum (Hyclone), vitamins (1×), penicillin (100 IU•mL-1), streptomycin (100 µg•mL−1), essential amino acids (1×), and sodium pyruvate (1×) (Mediatech Cellgro, VA). Cells were kept at 37 °C in a humidified environment containing 5% CO2.
(§5) Cytotoxicity Assay. Exponentially growing A549, DLD-1 or WS1 cells were plated in 96-well microplates (Costar, Corning Inc.) at a density of 5 × 10^3 cells per well in 100 µL of culture medium and were allowed to adhere for 16 h prior treatment. Increasing concentrations of each compound in biotech DMSO (Sigma-Aldrich) were then added (100 µL per well) and the cells were incubated for 48 h. The final concentration of DMSO in the culture medium was maintained at 0.5% (v/v) to avoid solvent toxicity. Cytotoxicity was assessed using resazurin9 on an automated 96-well Fluoroskan Ascent F1TM plate reader (Labsystems) using excitation and emission wavelengths of 530 and 590 nm, respectively. Fluorescence was proportional to the cellular metabolic activity in each well. Survival percentage was defined as the fluorescence in experimental wells as compared to that in control wells after subtraction of blank values. Each experiment was carried out three times in triplicate. IC50 results were expressed as means ± standard deviation. […]
(In general: Alamar Blue is a resazurin reagent that responds to reducing activity.)

On the set-up of data set [2]: method as in PMID 17105155. The settings on record: estimated; cited from earlier work.
Data set [3] is described as follows: Cytotoxicity, resazurin assay, summary over cell lines. Format: cell-based. The conditions noted are these: human, DLD-1 and WS1 cells (summary over the three lines); A549, DLD-1 and WS1; read-out: Cytotoxicity IC50 against human cell lines. The protocol: as §1, §2, §3, §4, §5
In a further data set the test system is tomato leaf disks. Put plainly: Extracellular ROS production, luminol chemiluminescence. Format: cell-based, Solanum lycopersicum. The settings on record: 100 μM, monitored over 720 min. The text has this:
Bacterial rhamnolipids, such as compound 3, trigger the plant immune system, which can ultimately lead to plant protection against diseases caused by fungal and bacterial pathogens.[23] As ananatoside A (1) and ananatoside B (2) share structural similarities with rhamnolipid 3 and because they have been isolated from P. ananatis cultures, an emerging plant pathogen causing important agricultural damage worldwide,[81] we wanted to investigate whether these bacterial glycolipids, along with our unprecedented series of synthetic rhamnolactones, could be perceived by the plant immune system. We relied on measuring the extracellular content of reactive oxygen species (ROS) produced by tomato plants (Solanum lycopersicum) following treatment with the synthetic compounds, as an early and important marker of plant immunity.[20,22,82] Tomato leaves were challenged with synthetic glycolipids 1–6 at concentrations of 100 μM and the production of ROS was monitored over a 720 min time frame (Fig. 5).
Fig. 5 Extracellular reactive oxygen species (ROS) production following treatment of tomato leaf disks with ananatoside A (1), ananatoside B (2), RhaC10C10 (3), and related macrodilactone-containing rhamnolipids (4–6). Production of ROS was measured in tomato leaf disks following treatment at 100 μM with synthetic glycolipids (1–6). MeOH (0.5%) was used as a control. ROS production was measured using the chemiluminescence of luminol and photon counts were expressed as relative luminescence units (RLUs). Data are mean ± SEM (n = 6). Experiments were independently realized three times with similar results. […]
Plant Material and Growth Conditions. Tomato plants (Solanum lycopersicum L var. Ailsa craig, Scotland) were grown on soil in growth chamber with white fluorescent light [200 μmol•(m−2 s−1)], under 16 h/8 h light/dark regime, 60% relative humidity , and a temperature of 24 /20 °C during four weeks prior treatment. Arabidopsis thaliana plants (ecotype Col -0) were grown on soil in growth chambers with white fluorescent light (150 μmol m−2 s−1), under 12 h/12 h light/dark regime, 60% relative humidity, and a temperature of 20/20 °C during six weeks prior treatment.
Reactive Oxygen Species (ROS) Production. ROS assays were performed on four-week old tomato plants or six-week old Arabidopsis plants. Briefly, tomato leaf disks of 6 mm diameter or Arabidopsis petiole sections of 5 mm long were cut and placed in a 96-well plate (Optiplate TM-96 white, PerkinElmer) containing 150 µL of distilled H2O and then incubated at rt for 24 h to reduce the wounding response.11 The elicitation solution containing 0.2 µg•mL−1 luminol (A4685-5 g, Sigma), […] (P6782, Sigma) and the tested glycolipids (1, 2, 3, 4, 5α, 5β, 6α or 6β) at 100 μM was prepared. Methanol (0.5%) was used as negative control. Prior elicitation, the incubating distilled H2O was carefully removed from each well, avoiding any tissue damage or desiccation. Then, the elicitation solution (150 µL) was quickly added to each well containing a leaf disk or a petiole. Luminescence (relative light units, RLU) was measured every 4

The nature of data set [4]: Emulsifying activity against hydrocarbon contaminants. The conditions noted are these: cyclohexane and kerosene. The data set is classed as physicochemical. The procedure: Therefore, the emulsifying properties of microbial biosurfactants 1–3 were evaluated against light as well as heavy hydrocarbon contaminants such as cyclohexane and kerosene, respectively (see Fig. S7 ^†).

Data set [5] can be described thus: Dynamic light scattering (Zetasizer), hydrodynamic diameter of micelles. The data set is classed as physicochemical. The conditions noted are these: pH 7.0; concentration 80 μM. The text has this:
In parallel to these experiments, we took advantage of dynamic light scattering (DLS) to evaluate the hydrodynamic diameter of biosurfactant micelles formed at concentrations above the CMC (Table 4).[79] DLS considers the intensity of light scattered by spherical particles, which prevents its application for highly polydisperse and non-spherical colloidal systems. […] Once again, due to its hydrophobicity, ananatoside A (1) was too polydisperse for conducting a proper distribution analysis, showing a Z-average value above 800 nm, which meant that the particles were aggregated in water at the tested concentration. Similar results were obtained for ananatoside A (1) when the DLS experiments were conducted in DMSO as the solvent.

Another data set deals with sheep blood erythrocytes. Put plainly: Hemolytic activity. Format: cell-based. The procedure: Owing to their surfactant properties, glycolipids can break the membrane of red blood cells causing hemolytic activity.[18] To understand if the cytotoxicity of macrolactones 1, 4, 5β, and 6β was due to their surface tension activity, we evaluated the hemolytic potential of synthetic glycolipids 1–6 against sheep erythrocytes (Table 5). […] The non-cytotoxic rhamnolipid 3 was also found to exert a weak hemolytic activity (HC50 = 65 ± 6 μM). […]
Hemolytic Activity. The hemolytic activity of the synthetic surfactants was evaluated as previously described with small modifications.10 Defibrinated sheep blood (Oxoid) was centri fuged at 1000 × g for 5 min. The pellet containing erythrocytes was washed once and suspended in 1X PBS to obtain a 1% erythrocytes suspension. All samples were suspended in DMSO/PBS (5:1 v/v) and serially diluted in a 96 -well plate to obtain a range of co ncentrations from 1 mM to 7.8 µM.
The erythrocytes suspension (160 µL) was added to 40 µL of samples to obtain final concentrations […]
ranging between 200 µM and 1.56 µM. Triton X-100 was used as a positive hemolysis control.
The plate was then incubated at 37 °C with agitation at 150 rpm for 1 h and centrifuged at 1500 × g for 5 min. The supernatant was transferred in an empty plate and absorbance was measured at 540 nm using a Cytation3 microplate reader (Biotek). HC50 was calculated in comparison with the positive control. The experiment was performed in triplicate and repeated three times. […]

The nature of data set [6]: Surface tension and CMC, Fisher tensiometer, du Noüy ring method. Format: physicochemical. Also on record: γ CMC (surface tension at CMC): unit not given here. The conditions noted are these: pH 7.0; synthetic samples. The protocol: Biosurfactants are molecules that can associate with each other leading to the formation of micelles. They can also interact with surfaces between phases of different polarity such as the air/water or oil/water interface.[77] To gain quantitative insights into the surface-active properties of microbial glycolipids, the surface tensions at CMC (γCMC) of ananatoside A (1) and ananatoside B (2) were measured using a Fisher tensiometer by means of the du Noüy ring method. The CMC, referring to the concentration of surfactant at which micelles start to form, was determined from a plot of surface tension again each concentration. […] Consequently, the surface tension measurements were performed quickly to avoid the precipitation of ananatoside A (1) into the aqueous medium.

In data set [7] the test system is human colorectal adenocarcinoma (DLD-1). Put plainly: Cytotoxicity, resazurin assay. The data set is classed as cell-based. The settings on record: 48 h, max tested 200 μM. The protocol:
as §1, §2, §3, §4, §5

The test system of data set [8] is human normal skin fibroblasts (WS1). The experiment in a line: Cytotoxicity, resazurin assay. Format: cell-based. The conditions noted are these: 48 h, max tested 200 μM. The protocol:
as §1, §2, §3, §4, §5

The test system of data set [9] is human lung carcinoma (A549). Put plainly: Cytotoxicity, resazurin assay. Format: cell-based. The settings on record: 48 h, max tested 200 μM. The procedure:
as §1, §2, §3, §4, §5

The mark [10] stands for this setting: DLD-1 colorectal adenocarcinoma cells.
[11] abbreviates: sheep blood erythrocytes, 1 h, 37 °C, max tested 200 μM.

For `COc1cc([C@@H]2c3cc4c(cc3[C@@H](O[C@@H]3O[C@@H]5CO[C@@H](C)O[C@H]5[C@H](O)[C@H]3O)[C@H]3COC(=O)[C@H]23)OCO4)cc(OC)c1O` [Etoposide, reference compound], the IC50 at 48 h was 1.2 µM in data set [1] (A549 lung carcinoma cells), 27 µM in data set [1] (setting [10]) and 34 µM in data set [1] (WS1 normal skin fibroblasts).

In the case of `CCCCCCC[C@H](CC(=O)O)OC(=O)C[C@@H](CCCCCCC)O[C@@H]1O[C@@H](C)[C@H](O)[C@@H](O)[C@H]1O` [Compound 3, RhaC10C10], the IC50 at 48 h in data set [1] (A549 lung carcinoma cells), in data set [1] (setting [10]), in [1] (WS1 normal skin fibroblasts) and in data set [3] was above 200 µM in each case. Also, in [2], the pKa is recorded as 5.5. For the same compound, in the data set on tomato leaf disks, the “Extracellular ROS production” value was “triggered a long-lasting and strong production of ROS”. In [4], the Emulsifying activity entry was “equally able to generate emulsions with cyclohexane and kerosene”. For the same compound, in data set [5], the “Z-Average (hydrodynamic diameter of micelles)” value is reported as 92.1 nm. For the same compound, the “Hemolysis (HC50 in μM) Erythrocytes” value with sheep blood erythrocytes (setting [11]) amounted to 65 ± 6 µM. Also, the “CMC (critical micelle concentration)” value in data set [6] came out at 58 ± 1 µM. In addition, in [6], the “γ CMC (surface tension at CMC)” value was found to be 30 ± 1.

In the case of `CCCCCCCC1CC(=O)OC2C(OC(CCCCCCC)CC(=O)O1)OC(C)C(O)C2O` (stereo not drawn) [Compound 5α], the IC50 at 48 h in [1] (A549 lung carcinoma cells), in [1] (setting [10]) and in data set [1] (WS1 normal skin fibroblasts) was above 200 µM in each case. Further, the “Extracellular ROS production” value with tomato leaf disks is given as “did not show a similar sensing pattern”. The “Hemolysis (HC50 in μM) Erythrocytes” value in the data set with sheep blood erythrocytes (setting [11]) is >200 ^d μM.

With `CCCCCCCC1CC(=O)OC2C(C)OC(OC(CCCCCCC)CC(=O)O1)C(O)C2O` (stereo not shown) [Compound 4], the IC50 at 48 h in [1] (A549 lung carcinoma cells) was 56 ± 2 µM; in data set [1] (setting [10]), 70 ± 10 µM; in data set [1] (WS1 normal skin fibroblasts), 57 ± 1 µM; in data set [3] it was 50 to 112 µM. Also, the “Hemolysis (HC50 in μM) Erythrocytes” value with sheep blood erythrocytes (setting [11]) worked out at 12.0 ± 0.7 µM.

For Triton X-100 [reference compound], in the data set on sheep blood erythrocytes, the “Hemolysis (HC50 in μM) Erythrocytes” value is on record as “c Half maximal inhibitory concentration measured on sheep blood erythrocytes. Triton X-100 was used as a positive control showing an HC50 value of 52 ± 2 μM”.

Turning to `CCCCCCCC1CC(=O)OC2C(O)C(C)OC(OC(CCCCCCC)CC(=O)O1)C2O` (stereo not drawn) [Compound 6α], the IC50 in data set [7], in [8] and in data set [9] was above 200 µM throughout. In the data set with sheep blood erythrocytes (setting [11]), the “Hemolysis (HC50 in μM) Erythrocytes” value is reported as >200 ^d μM.

With `CCCCCCCC1CC(=O)OC2C(O)C(C)OC(OC(CCCCCCC)CC(=O)O1)C2O` (stereo not drawn) [Compound 6β], the IC50 at 48 h in [1] (A549 lung carcinoma cells) is 112 ± 2 µM; in [1] (setting [10]), 112 ± 3 µM; in data set [1] (WS1 normal skin fibroblasts), 110 ± 1 µM; in [3], 50 to 112 µM. The “Hemolysis (HC50 in μM) Erythrocytes” value in the data set with sheep blood erythrocytes (setting [11]) came out at 12.3 ± 0.5 µM.

For the compound `CCCCCCCC1CC(=O)OC2C(OC(CCCCCCC)CC(=O)O1)OC(C)C(O)C2O` (stereo not drawn) [Compound 5β], the results for the IC50 in [7], in [8] and in data set [9] were 110 ± 2 µM, 105 ± 5 µM and 103 ± 7 µM, respectively. The IC50 at 48 h in [3] fell in the range of 50 to 112 µM. Also, the “Extracellular ROS production” value with tomato leaf disks is “induced a strong and long-lasting production of ROS following the initial burst at 200 min”. Besides, in the data set on sheep blood erythrocytes (setting [11]), the “Hemolysis (HC50 in μM) Erythrocytes” value amounted to 14 ± 2 µM.

The values are drawn from paper PMC8171317, “Total synthesis, isolation, surfactant properties, and biological evaluation of ananatosides and related macrodilactone-containing rhamnolipids” (Chemical Science, 2021).
